Source: US20230003721A1, “MITOTHERAPEUTICS FOR THE TREATMENT OF BRAIN DISORDERS” (The University of Florida Research Foundation, Inc., priority 2019, published 2023)
Counter-ions that a name gives are not always drawn. Like-named read-outs stand apart in the source and are kept apart here.

Tests used:
[1] = tested on: primary forebrain neurons; assay: cells; settings: for EC50: Mus musculus, Neuron
Experimental: Primary forebrain cell culture and maintenance. Forebrains of P0 Mt or Mt/Ai14 pups without olfactory bulbs and meninges were collected and placed in ice cold Ca^2+ and Mg^2+ free HBSS supplemented with 2 μg/ml gentamicin, 25 mM D-glucose, 1 mM pyruvate and 20 mM HEPES. Brain tissue was digested with 0.6 mg/ml papain at 37° C. for 20 min. Forebrains were washed with plating media [Neurobasal (Gibco), 5% FBS, 4 mM GlutaMAX (Gibco), 2 μg/ml gentamicin]. The tissue was gently triturated, allowed to settle and the supernatant was filtered through a 40 μm mesh-sized cell strainer. Cells were centrifuged at 420×g for 4 min and resuspended in plating media. 15,000 cells per well were plated with 2×10^8 viral particles/ml onto black Greiner μClear (Cat #781946) or Ultra-Low Base Aurora with evaporation barrier (Cat #ABE201201B) 384-well plates (80 μl/well) pre-coated with poly-D-lysine for the primary screen and rescreen, respectively. Plating and media changes were performed using an automated Biomek FX^P liquid handling workstation. Four hr after plating, 75% of the plating media was replaced by feeding media [Neurobasal-A (Gibco), 4 mM GlutaMAX (Gibco), 2 μg/ml gentamicin, 2% B27 (Gibco)]. At DIV4, 50% of the media was exchanged with fresh feeding media supplemented with 16 μM 5-Fluoro-2′-deoxyuridine (FUdR) to prevent glial cell over-growth. At DIV8 and DIV12, additional 50% media changes were made without FUdR. Cells were maintained at 37° C. and 5% CO2; plates were topped with Breathe-Easy adhesive membranes (Greiner plates) to minimize evaporation.
Compounds and compound transfer.
Imaging. Images were captured using a GE Incell 6000 system (60× objective, 0.95 NA, 16-bit images) equipped with environmental control (37° C., 5% CO2). Mt-GFP (green channel) was imaged by confocal imaging (3 slices, Δz=0.7 μm, aperture=1.0 AU, λexc=488 nm, λem=515-535 nm). Cyto-tdTomato (red channel) and MitoTracker Orange (red channel) were imaged using confocal mode (3 slices, Δz=0.7 μm, aperture=1.0 AU, λexc=561 nm, λem=569-641 nm, MitoTracker Orange) or with widefield mode (Cyto-tdTomato). TMRM imaged for the co-localization experiments with Mt-GFP was imaged using the confocal mode (3 slices, […] aperture=1.0, λexc=488, λem=569-641 nm). For the live-dead assay, primary neurons were imaged with a 20× (widefield mode, NA 0.45) objective using λexc=561 nm and λem=569-641 nm for the propidium iodide stained dead cells (red channel), and λexc=488 nm and λem=515-535 nm for the fluorescein diacetate stained live cells (green channel). 10 fields were collected from each well, and 4 wells were imaged/condition in the live-dead assay. For all other experiments, 4 fields/well were imaged unless otherwise stated.
Automated data analysis pipeline. Most experiments utilized only Mt-GFP; some utilized both Mt-GFP and Cyto-tdTomato. The Z-projected images were preprocessed using a custom Fiji macro. For preprocessing of Mt-GFP images: background was subtracted (rolling ball, radius=3), images were median filtered (radius=1) and somatic mitochondria were removed. For removal of the somatic mitochondria, they were first segmented and then a somatic mitochondrial mask overlaid on the image.

primary neurons [2] = assay: CellTiter-Glo luminescence-based ATP assay; type: cell-based, mouse; settings: for ATP: ATP orthogonal screen, 24 h; for EC50 / Emax / ATP (Effect-size): dose response; for EC50: 15 concentrations from 6 nM to 100 uM; for Emax / ATP (Effect-size): maximal percent increase relative to in-plate DMSO controls; for Emax: read-out: ATP (Effect-size)
Summary of the method: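 Primary neurons treated from DIV13 for 24 h with compound or DMSO. After part of the medium was removed, CellTiter-Glo reagent was added; plates were shaken 10 min at 200 rpm, kept 2 min in the dark at room temperature, and luminescence read as total ATP.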

primary neurons [3] = assay: TMRM fluorescence assay of inner mitochondrial membrane potential (ΔΨm); settings: for TMRM Primary: primary screen; for TMRM Primary / TMRM Rescreen: 24 h; for Emax: read-out: TMRM (Effect-size); for EC50: read-out: TMRM-EC50; for TMRM (Effect-size): maximal percent increase relative to in-plate DMSO controls
[4] = rescreen, 12.5 μM, 24 h, vs DMSO wells
[5] = 24 h, read-out: Health (Ax Mt Circularity) EC50
[6] = 24 h, read-out: Mt Content (Dend Mt CA) EC50
[7] = 24 h, read-out: Elongation (Dend Mt length) EC50
[8] = 24 h, read-out: Sprouting (Neurite Area) EC50
[9] = dose response, 15 concentrations from 6 nM to 100 uM

Compound	Dendritic Mt CA [1, 4]	Neurite Area [1, 4]	ATP (primary neurons [2])	TMRM Primary (primary neurons [3]; 12.5 μM)	TMRM Rescreen (primary neurons [3])	also measured
COc1cc(OC)c2c(c1)O[C@H](c1ccc(OC)c(OC)c1)[C@@H](O)C2	2.44 robust Z-scores	1.87 robust Z-scores	–	–	–	–
C[C@@H](N)[C@@H](O)c1ccccc1 [1R,2S-PHENYLPROPYLAMINE]	3.14 robust Z-scores	1.25 robust Z-scores	–	–	–	–
O=C(/C=C/c1ccc(O)cc1)c1ccccc1O [2′,4-DIHYDROXYCHALCONE]	2.57 robust Z-scores	0.01 robust Z-scores	–	–	–	–
O=C(/C=C/c1ccccc1)c1ccc(O[C@@H]2O[C@H](CO)[C@@H](O)[C@H](O)[C@H]2O)cc1O [2′,4′-DIHYDROXYCHALCONE 4′-GLUCOSIDE]	4.44 robust Z-scores	−0.18 robust Z-scores	–	–	–	–
O=c1c(O)c(-c2ccccc2)oc2cccc(O)c12 [3,5-DIHYDROXYFLAVONE]	3.43 robust Z-scores	1.20 robust Z-scores	–	–	–	–
O=c1c(O)c(-c2ccccc2)oc2cc(O)ccc12 [3,7-DIHYDROXYFLAVONE]	2.78 robust Z-scores	1.37 robust Z-scores	–	–	–	–
O=c1cc(-c2ccccc2)oc2ccc(O)cc12 [6-HYDROXYFLAVONE]	2.88 robust Z-scores	0.69 robust Z-scores	–	–	–	–
COc1ccccc1-c1coc2cc(O)ccc2c1=O [7-HYDROXY-2′-METHOXYISOFLAVONE]	–	–	–	–	–	EC50 [1, 5]: 200 nM; EC50 [1, 6]: > 25000 nM
CC[C@@]1(O)C(=O)OCc2c1cc1n(c2=O)Cc2cc3cc(O)ccc3nc2-1 [10-HYDROXYCAMPTOTHECIN]	2.23 robust Z-scores	2.29 robust Z-scores	–	–	–	–
CN1CCc2cccc3c2[C@H]1Cc1ccc(O)c(O)c1-3 [APOMORPHINE HYDROCHLORIDE]	2.10 robust Z-scores	−0.07 robust Z-scores	–	–	–	–
CCCC1O[C@@H]2C[C@H]3[C@@H]4CCC5=CC(=O)C=C[C@]5(C)[C@H]4[C@@H](O)C[C@]3(C)[C@]2(C(=O)CO)O1 (stereo partly shown) [BUDESONIDE]	2.16 robust Z-scores	−0.61 robust Z-scores	–	–	–	–
CCCCCOC(=O)Nc1nc(=O)n([C@@H]2O[C@H](C)[C@@H](O)[C@H]2O)cc1F [CAPECITABINE]	2.88 robust Z-scores	0.58 robust Z-scores	–	–	–	–
CNC(=O)Oc1cccc2ccccc12 [CARBARIL]	2.03 robust Z-scores	−0.48 robust Z-scores	–	–	–	–
CC(C)CCC[C@@H](C)[C@H]1CC[C@H]2[C@@H]3CC=C4CC(=O)CC[C@]4(C)[C@H]3CC[C@]12C [CHOLEST-5-EN-3-ONE]	2.78 robust Z-scores	−0.65 robust Z-scores	–	–	–	–
C#CCN(C)CCCOc1ccc(Cl)cc1Cl [CLORGILINE HYDROCHLORIDE]	4.33 robust Z-scores	−0.36 robust Z-scores	–	–	–	EC50 [1, 7]: 5000 nM; EC50 [1, 5]: 300 nM; EC50 [1, 6]: 1000 nM; EC50 [1, 8]: > 25000 nM
COc1ccc2c(c1)[C@]13CCCC[C@@H]1[C@H](C2)N(C)CC3 [DEXTROMETHORPHAN HYDROBROMIDE]	–	–	–	–	–	Dendritic Mt CA [1]: 2.38 robust Z-scores; Neurite Area [1]: 0.21 robust Z-scores
C=C(C)c1cc2cc(C(C)=O)c(O)cc2o1 [EUPARIN]	4.22 robust Z-scores	1.17 robust Z-scores	–	–	–	–
O=C(CCCN1CCC(O)(c2ccc(Cl)cc2)CC1)c1ccc(F)cc1 [HALOPERIDOL]	2.99 robust Z-scores	−2.37 robust Z-scores	–	–	–	–

Compound	Dendritic Mt CA [1, 4]	Neurite Area [1, 4]	ATP (primary neurons [2])	TMRM Primary (primary neurons [3]; 12.5 μM)	TMRM Rescreen (primary neurons [3])	also measured
FC(F)(F)C(Cl)Br (stereo not shown) [HALOTHANE]	–	–	–	–	–	Dendritic Mt CA [1]: 2.60 robust Z-scores; Neurite Area [1]: 2.65 robust Z-scores
COc1ccc2c(c1)[nH]c1c(C)nccc12 [HARMINE]	3.65 robust Z-scores	−1.63 robust Z-scores	–	–	–	EC50 [1, 7]: 1700 nM; EC50 [1, 5]: > 25000 nM; EC50 [1, 8]: > 25000 nM
CN(C)c1cc(NC(=O)CNC(C)(C)C)c(O)c2c1C[C@H]1C[C@H]3[C@H](N(C)C)C(O)=C(C(N)=O)C(=O)[C@@]3(O)C(O)=C1C2=O [tigecycline]	–	–	4.97 Z-scores	3.91 Z-scores	5.95 Z-scores	–
CCNC1(c2cccs2)CCCCC1=O.Cl (stereo not shown) [tiletamine hydrochloride]	–	–	6.27 Z-scores	3.31 Z-scores	4.20 Z-scores	–
Cc1ccc(C(=O)C(C)CN2CCCCC2)cc1 (stereo not shown) [tolperisone hydrochloride]	–	–	5.49 Z-scores	3.57 Z-scores	3.67 Z-scores	–
CN(C)CCOc1ccc(/C(=C(/CCCl)c2ccccc2)c2ccccc2)cc1 [toremifene citrate]	–	–	3.29 Z-scores	3.31 Z-scores	7.05 Z-scores	–
CSc1nc2cc(Cl)c(Oc3cccc(Cl)c3Cl)cc2[nH]1 [triclabendazole]	–	–	3.97 Z-scores	3.30 Z-scores	3.61 Z-scores	–
OC(CCN1CCCCC1)(c1ccccc1)C1CCCCC1 (stereo not shown) [trihexyphenidyl hydrochloride]	–	–	5.95 Z-scores	6.07 Z-scores	7.08 Z-scores	EC50 (primary neurons [2]; Mus musculus, Primary neuron): 170 nM; Emax (primary neurons [2]; Mus musculus, Primary neuron): 17.8%; Emax (primary neurons [3]; Mus musculus, Primary neuron): 20%; EC50 (primary neurons [3]; Mus musculus, Primary neuron): 3200 nM
CC(CN(C)C)CN1c2ccccc2CCc2ccccc21 (stereo not shown) [trimipramine maleate]	–	–	5.24 Z-scores	5.18 Z-scores	5.16 Z-scores	EC50 (primary neurons [2]; Mus musculus, Primary neuron): 180 nM; Emax (primary neurons [2]; Mus musculus, Primary neuron): 16.4%; Emax (primary neurons [3]; Mus musculus, Primary neuron): 20%; EC50 (primary neurons [3]; Mus musculus, Primary neuron): 360 nM
CCOC(=O)C1=C[C@]2(CC)CCCN3CCc4c(n1c1ccccc41)[C@@H]32 [vinpocetine]	–	–	6.29 Z-scores	5.76 Z-scores	6.16 Z-scores	–
acetophenazine maleate	–	–	5.65 Z-scores	5.64 Z-scores	5.34 Z-scores	EC50 (primary neurons [2]): 300 nM; ATP (Effect-size) (primary neurons [2]): 16.7%; TMRM (Effect-size) (primary neurons [3]; dose response): 17.5%; EC50 (primary neurons [3]; [9]): 1150 nM
butacaine sulfate	–	–	6.99 Z-scores	3.85 Z-scores	5.06 Z-scores	–
carvedilol phosphate	–	–	6.87 Z-scores	5.81 Z-scores	5.43 Z-scores	–
colistin sulfate	–	–	5.48 Z-scores	3.27 Z-scores	5.24 Z-scores	–
pizotyline malate	–	–	7.13 Z-scores	3.21 Z-scores	5.84 Z-scores	EC50 (primary neurons [2]): 360 nM; ATP (Effect-size) (primary neurons [2]): 17.9%; TMRM (Effect-size) (primary neurons [3]; dose response): 25.2%; EC50 (primary neurons [3]; [9]): 2600 nM
trimebutine maleate	–	–	6.14 Z-scores	3.79 Z-scores	5.82 Z-scores	hit in TMRM primary screen when assayed at 4 h (primary neurons [3]; 12.5 μM, 4 h): trimebutine maleate*
trimeprazine tartrate	–	–	5.75 Z-scores	3.13 Z-scores	3.94 Z-scores	–
